Data: patent US20230002344A1, “NOVEL BENZOTHIOPHENE DERIVATIVES AND USE THEREOF FOR STIMULATING MITOCHONDRIAL TURNOVER” (NIBN, The National Institute For Biotechnology In The Negev …, priority 2019, published 2023)
“Also recorded” adds a separate entry of the source.

Columns and labels:
[1] = system: INS1 cells; experiment: Anion radical superoxide (Mitosox); format: cell-based; conditions: 25 uM
Experimental: INS1 cells were treated for 24 h with SPB08007 (25 uM) or DMSO (0.1%). Mitochondrial membrane potential was analyzed cell by cell through TMRE staining corrected by Mitotracker Green (MTG). Cells were imaged using a 100× Plan Neofluar objective and the Airyscan module of a Zeiss LSM880 confocal microscope. […] Each experiment was repeated 2 times, 59-85 cells of each group were analyzed in each experiment for TMRE/MTG, and 48 fields were analyzed in each experiment for Mitosox analysis. *p<0.05 vs. DMSO; ***p<0.05 vs. DMSO and SPB08007.
Mitotracker Green Fluorescence, Anion Radical Superoxide and Mitochondrial Membrane Potential. INS1 cells were seeded into wells of a 96-wells glass bottom cell culture plate (CELLSTAR) at a density of 2*10^4 cells/well. To assess mitochondrial clearance, a pulse-chase experiment was performed. Briefly, cells were stained with MTG (Molecular Probes) 500 nM for 30 min, washed, and treated with (25 uM) or DMSO 0.1%. After 18 h, cells were imaged using a 40× lens of a Perkin Elmer Operetta high-content imaging system microscope. Results are expressed as the percentage of MTG fluorescence relative to MTG fluorescence of the “time 0” control. […] Integrated fluorescence of each field was analyzed in Image J after background subtraction and threshold (IsoData) application. Twenty-four fields of each condition were analyzed in each experiment.

[2] = system: Mitochondrial complex I; experiment: Complex I activity assay; format: biochemical; conditions: mitochondria from INS1 cells treated with 25 uM
Experimental: Complex I Activity assay. Mitochondrial complex I enzyme activity was measured using Abcam's complex I enzyme activity microplate assay Kit (ab109721) by following the oxidation of reduced nicotinamide adenine dinucleotide (NADH) to oxidized NAD+ and the simultaneous reduction of a dye which leads to increased absorbance at OD=450 nm.

[3] = system: INS1 cells expressing mCherry-GFP; experiment: mCherry-GFP-Fis1101-152 determination of mitophagy; format: cell-based
From the text: To corroborate the increase in mitochondrial clearance, we determined mitophagy by testing the compounds in INS1 cells expressing mCherry-GFP, a mitochondrial probe that emits green and red fluorescence under physiologic pH but red fluorescence only under acidic pH (such as that occurring in autolysosomes) and is therefore used for quantifying mitophagy. Unlike MitoTimer, which captures the accumulating effect of mitochondrial turnover, mCherry-GFP captures mitophagy at the time that it occurs. Since the timing of the induction of mitophagy by the hits was not known, we did a time-lapse. The cells were treated with the hits for 2, 8 and 18 hours. While after 2 hours and 18 hours, the molecules tended to increase the number of mitochondria inside autophagosomes (data not shown), only after 8 hours was this increase significant.
mCherry-GFP-Fis1101-152 determination of mitophagy. INS1 cells were seeded into 4 compartment […]™ glass bottom cell culture dishes at a density of 2*10^4 cells/compartment. After 48 hours cells were transduced with an adenoviral construct encoding the fluorescent mitophagy reporter mCherry-GFP-Fis1101-152 for 24 hours. A media change containing the indicated treatment concentration or 0.1% DMSO as vehicle control was performed 8 hours before the imaging session. Imaging was performed using a 63× Plan Neofluar objective and the Airyscan module of a Zeiss LSM880 confocal microscope. 25 visual fields containing 59-85 cells in total were imaged per condition. The experiment was repeated three times independently. Image analysis was performed with FIJI ImageJ 1.51p and CellProfiler 2.2.0 rev ac0529e. Briefly, individual cells were cropped and background was subtracted using a median filter assisted processing method (Dunn, K. W., Kamocka, M. M. McDonald, J. H. (2011) A practical guide to evaluating colocalization in biological microscopy. Am. J. Physiol. Cell Physiol. 300, C723-C742). Ratios of red/green fluorescence channels were computed and mitophagy positive structures were recognized based on a lower ratio cut-off of 2.5 of red over green. Mitophagy events per cell were determined by the following formula. […]
Data were normalized to DMSO controls to account for day to day variation. […] Significant treatment differences were determined using One-way ANOVA and Tukey post-hoc analysis. […]
The impact of the hits on mitochondrial turnover was further confirmed by a mitophagy-specific assay, a protein with a tandem mCherry-GFP tag attached to the localization signal of the protein FIS at the OMM. […] When mitochondria enter the lysosomes, the GFP fluorescence is quenched, the remaining red fluorescence is seen as red puncta, representing the undergoing mitophagy events.

[4] = system: INS1 cells; experiment: Cell viability (XTT); format: cell-based; conditions: 25 μM, 24 hours exposure
Experimental: Cell Viability. Viability was measured using an XTT kit (Biological Industries), as recommended by the manufacturer. 30,000 cells were seeded in a flat 96-well plate. To each well 100 μl of growth media was added. The cells were incubated in a CO2 incubator at 37° C. In most cases, cells can be used to assay proliferation after 24-96 hours. Each test included a blank containing complete medium without cells as a background control. To prepare a reaction solution sufficient for one plate (96 wells), 0.1 ml activation solution was added to 5 ml XTT reagent. 50 μl of the reaction solution was added to each well and the plate was incubated in an incubator for 2-24 hours. Following the incubation, the plate was shacked gently to evenly distribute the dye in the wells and the absorbance of the samples was measured against a background control with a spectrophotometer (ELISA reader) at a wavelength of 480 nm. To determine non-specific readings we used a wavelength of 650 nm which we subtracted from the 480 nm measurement. The average absorbance of the blank control wells was finally subtracted from that of the other wells.
For all the experiment concerning cell viability, a kit of XTT reagent was used (Biological Industries).

## CC(=O)N/C(=C\c1sc2ccccc2c1C)C(=O)O [SPB08007]
[1]
  anion radical superoxide formation (Mitosox): unaffected
[2]
  mitochondrial Complex I activity: two-and-a-half-fold increase
[3]; 25 uM
  time of peak formation of acidic puncta: 8 h
[3]; 25 uM, 8 h, vs DMSO
  number of acidic puncta (mitophagy events per cell): significantly increased
[3]; 25 uM, 18 h
  number of mitophagy events at 18 h: returned to control levels
[3]; 8 hours
  number of red fluorescent dots in acidic vesicles (mitophagy): increased
[4]
  viability (XTT): did not affect viability; also recorded: comparable to DMSO control
